Where “and” joins values, the source holds several entries; their conditions need not be identical. Equal values may be shown once.
Legend:
Format in all cases: in vivo, human
prostate cancer = assay: Progression-free survival of prostate cancer patients in phase 1A study of AZD4635, grouped by group I signature
Procedure: To derive signatures geared toward adenosine-drive prostate cancers, time-series of samples from 96 patients prostate cancer patients enrolled in the phase 1A study of AZD4635 (NCT02740985) were collected and analyzed for gene expression by using the NanoString nCounter FLEX Analysis System and the commercially available 770-gene, human PanCancer Immune Profiling Panel (NanoString). The time series was up to 120 weeks for some patients. Signatures were tested for their concordance with progression-free survival (PFS), where progression is objective disease progression (by PSA recurrence or RECIST 1.1 criteria), or death by any cause in the absence of progression. (A concordance index of 0.5 represents random chance; a concordance index of 1 represents perfect prediction.) The concordance index, in this context, is a measure of how successful a given signature is in predicting PFS; that is, if stratifying patients into ‘adenosine-low’ and ‘adenosine-high’ groups correlated with the adenosine-high group having a longer median PFS than the adenosine-low group (patients with tumors that are more strongly adenosine drive should benefit more from treatment with the A2AR antagonist AZD4635). The stronger that correlation, the greater the concordance index.

[1] = system: adenosine signalling signature (A2AR); assay: Phase 1A study NCT02740985: adenosine signalling signature scores in pre-dose and on-treatment tumour biopsies
From the text: We scored transcriptome data with the signature using GSVA (60). This method is robust to outlying genes expressed at different orders of magnitude and generates scores amenable to downstream statistical interpretation. We observe a strong linear correlation between signatures representing immune processes/features and tumour purity in TCGA (see FIG. 7). To account for this bias we adjust the signature scores for tumour purity by fitting a linear regression derived from all samples in TCGA versus tumour purity and then applying the following correction:
Immune cell infiltrates were determined with an SVR approach based on CIBERSORT (36) to define relative immune cell abundance. To study the association of adenosine with CD8^+ T cell infiltration we consider CD8 high tumours to be greater than the median of CD8A expression across all samples. All other cell or cell-state signatures were scored using GSVA. NK cell exhaustion was determined using expression of KIR3DL1, KIR3DL2, IL2RA, IL15RA, HAVCR2 and EOMES. Cytotoxicity was determined using the expression of: NKG7, CST7, PRF1, GZMA, GZMB and IFNG. CD8 Exhaustion was determined using the signature provided in (Danaher et al. 2017). IFNG signalling was determined using the signature presented by (Ayers et al. 2017).
(§1) The first-in-human trial, NCT02740985, was conducted to assess safety, PK and pharmacodynamic activity of AZD4635 as monotherapy and in combination with durvalumab in patients with treatment refractory solid tumours. Pre-dose and on-treatment tumour biopsies were collected from 7 subjects who were treated with AZD4635 monotherapy at or below the maximum tolerated dose (MTD) of 100 mg PO daily.
Total RNA was extracted from tumour tissue macrodissected from […] thick FFPE sections using the miRNeasy FFPE Kit (QIAGEN). RNA integrity and quantity were assessed on the TapeStation 2200 using the RNA ScreenTape System (Agilent). […]
The RNA was subsequently analyzed for gene expression using the NanoString nCounter FLEX Analysis System and the commercially available 770-gene, human PanCancer Immune Profiling Panel (NanoString). […]

[2] = Phase 1A study NCT02740985: safety, maximum tolerated dose; details: monotherapy, PO daily, patients with treatment refractory solid tumours
Procedure: as §1

SMILES: Cc1cc(-c2nnc(N)nc2-c2ccc(F)cc2)cc(Cl)n1 [AZD4635, 6-(2-chloro-6-methylpyridin-4-yl)-5-(4-fluorophenyl)-1,2,4-triazin-3-amine]
- median PFS, adenosine-low group (prostate cancer; p=0.008 vs adenosine-high): 12 weeks
- median PFS, adenosine-high group (prostate cancer; p=0.008 vs adenosine-low): 34 weeks
- patients with reduced adenosine scores who also had increases in gene expression signatures of cytolytic activity and IFNG signalling ([1]; of the 5 patients with reduced scores, out of 7 treated): 4 patients
- patients with reduced adenosine signalling scores ([1]; solid tumours, AZD4635 monotherapy once daily at or below MTD, on-treatment vs pre-dose biopsy): 5 of the 7 and 5 of 7
- share of patients with reduced adenosine signalling scores ([1]; solid tumours, AZD4635 once daily, 7 patients): 70%
- maximum tolerated dose (MTD) [2]: 100 mg
